One experiment deals with T1, hA2AAR (Homo sapiens, UniProt P29274).
T1 construct: expressed in transfected cells; host or cells: HeLa (HeLa-A2A) cell membranes
Briefly: Radioligand binding competition, [3H]ZM241385, membranes from HeLa-A2A cells. The settings on record: 1 μM, [3H]ZM241385, human HeLa cells, n = 2. The procedure: (§1) All ligands reported in Tables 1–5 were obtained and tested as racemic mixtures. The whole set was evaluated in silico with a combination of a Rdkit[37] PAINS filter and Instant JChem from Chemaxon (https://www.chemaxon.com), to rule out the possibility that these ligands can be promiscuous pan-assay interference compounds (PAINS) and to assess their bioavailability, respectively. […] The stereoisomers of selected compounds were obtained by chiral resolution and tested at the four human AR subtypes in their enantiopure forms (Table 6).
(§2) A brief description is given below. […] Non-specific binding was determined in the presence of 10 μM R-PIA. The reaction mixture was incubated at 25 °C for 60 min. […] The reaction mixture was incubated at 25 °C for 30 min. […] The reaction mixture was incubated at 25 °C for 30 min. […] Non-specific binding was determined in the presence of 100 μM R-PIA. […] After the incubation time, membranes were washed and filtered and radioactivity was detected in a MicroBeta TriLux reader (PerkinElmer).

The target of a further experiment is T2, hA3AR (Homo sapiens, UniProt P0DMS8).
T2 construct: expressed in transfected cells; host or cells: HeLa (HeLa-A3) cell membranes
T2 sequence (P0DMS8 1-318): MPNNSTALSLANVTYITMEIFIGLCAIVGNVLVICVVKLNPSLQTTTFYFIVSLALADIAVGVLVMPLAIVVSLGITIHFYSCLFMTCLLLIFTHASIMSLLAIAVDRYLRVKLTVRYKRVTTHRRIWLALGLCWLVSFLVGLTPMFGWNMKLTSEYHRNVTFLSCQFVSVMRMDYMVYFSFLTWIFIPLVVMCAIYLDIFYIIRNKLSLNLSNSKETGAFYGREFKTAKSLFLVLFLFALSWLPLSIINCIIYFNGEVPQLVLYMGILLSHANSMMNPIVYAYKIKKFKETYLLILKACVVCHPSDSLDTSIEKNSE
Briefly: Radioligand binding competition, [3H]NECA, membranes from HeLa-A3 cells. Particulars: 1 μM, [3H]NECA, human HeLa cells, n = 2. The procedure: as §1, §2

A further experiment addresses T3, hA2BAR (Homo sapiens, UniProt P29275).
T3 construct: host or cells: HEK-293 (HEK-293-A2B) cell membranes
T3 sequence (P29275 1-332): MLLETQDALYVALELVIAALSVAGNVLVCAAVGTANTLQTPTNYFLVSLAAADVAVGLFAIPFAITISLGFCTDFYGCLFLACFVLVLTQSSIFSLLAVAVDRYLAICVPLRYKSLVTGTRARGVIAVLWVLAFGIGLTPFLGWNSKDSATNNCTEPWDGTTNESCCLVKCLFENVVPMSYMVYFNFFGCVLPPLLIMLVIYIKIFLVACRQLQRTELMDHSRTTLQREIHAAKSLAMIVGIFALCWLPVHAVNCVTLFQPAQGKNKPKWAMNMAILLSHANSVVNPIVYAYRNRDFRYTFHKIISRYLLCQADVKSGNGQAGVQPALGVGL
The experiment is described as follows: Radioligand binding competition, [3H]DPCPX, membranes from HEK-293-A2B cells. Also on record: Exp. dG: unit not given here. The settings on record: for Ki: read-out: Ki hA2B; for % at 1 μM hA2B (percentage displacement of specific binding): [3H]DPCPX, human HEK-293 cells, n = 2; for Exp. dG: experimental binding free energy, Supplementary Table S3, unit not given (errors in kcal/mol). The procedure: as §1, §2

Another experiment has as its target T4, hA1AR (Homo sapiens, UniProt P30542).
T4 sequence (P30542 1-326): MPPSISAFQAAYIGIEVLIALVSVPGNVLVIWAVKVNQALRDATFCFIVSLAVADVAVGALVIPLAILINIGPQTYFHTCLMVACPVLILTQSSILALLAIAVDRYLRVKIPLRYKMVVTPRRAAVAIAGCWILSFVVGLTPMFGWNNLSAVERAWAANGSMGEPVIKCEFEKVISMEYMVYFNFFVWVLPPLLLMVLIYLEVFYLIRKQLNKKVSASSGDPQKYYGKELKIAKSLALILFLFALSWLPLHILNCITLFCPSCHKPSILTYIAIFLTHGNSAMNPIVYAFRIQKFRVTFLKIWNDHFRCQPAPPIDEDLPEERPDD
The experiment is described as follows: Radioligand binding competition, [3H]DPCPX, membranes from CHO-A1 cells. Particulars: 1 μM, [3H]DPCPX, human CHO cells, n = 2. The method, then:
as §1, §2

The mark [1] stands for this setting: displacement of specific [3H]DPCPX binding in human HEK-293 cells, n = 3.

The record followed here is PMC9841532, “Exploring the Effect of Halogenation in a Series of Potent and Selective A2B Adenosine Receptor Antagonists” (Journal of Medicinal Chemistry, 2022).

Read-outs that look alike come from different tables or passages of the source.

T1 sequence (P29274 whole entry): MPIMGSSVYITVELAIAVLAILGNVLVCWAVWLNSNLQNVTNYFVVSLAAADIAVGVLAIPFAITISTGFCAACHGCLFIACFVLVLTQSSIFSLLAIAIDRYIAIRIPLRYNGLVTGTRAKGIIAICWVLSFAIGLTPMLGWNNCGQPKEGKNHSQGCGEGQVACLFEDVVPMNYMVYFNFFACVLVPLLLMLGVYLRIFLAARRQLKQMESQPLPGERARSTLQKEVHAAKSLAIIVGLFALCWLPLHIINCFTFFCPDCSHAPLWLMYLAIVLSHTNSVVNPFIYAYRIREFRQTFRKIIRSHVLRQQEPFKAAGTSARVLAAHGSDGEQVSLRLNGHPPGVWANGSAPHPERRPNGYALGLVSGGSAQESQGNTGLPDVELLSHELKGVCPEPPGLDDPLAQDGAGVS

Consider `CCOC(=O)C1=C(C)Nc2nc3ccc(Br)cc3n2C1c1ccoc1` (centres unmarked) [15s], for which the “% at 1 μM hA2A (percentage displacement of specific binding)” value at hA2AAR is on record as 1%. In addition, the “% at 1 μM hA3 (percentage displacement of specific binding)” value on hA3AR was determined as 19%. In addition, the Ki on hA2BAR (setting [1]) was 318 ± 6 nM; on hA2BAR, around 45 nM. Besides, at hA1AR, the “% at 1 μM hA1 (percentage displacement of specific binding)” value is 10%.
In the case of `CC1=C(C(=O)OC(C)C)C(c2ccoc2)n2c(nc3ccc(Br)cc32)N1` (centres unmarked) [15t], the “% at 1 μM hA2A (percentage displacement of specific binding)” value on hA2AAR was determined as 3%. For the same compound, at hA3AR, the “% at 1 μM hA3 (percentage displacement of specific binding)” value was 12%. Further, at hA2BAR, the “% at 1 μM hA2B (percentage displacement of specific binding)” value is on record as 26%. In addition, the “% at 1 μM hA1 (percentage displacement of specific binding)” value at hA1AR turned out to be 11%.
For `CCOC(=O)C1=C(C)Nc2nc3ccc(Br)cc3n2C1c1cccs1` (centres unmarked) [15u], in that order: 5%, 4%, 1% and 1%.
On the same counts, the results for `CC1=C(C(=O)OC(C)C)C(c2cccs2)n2c(nc3ccc(Br)cc32)N1` (centres unmarked) [15v] are 6%, 8%, 11% and 1%.
For `CCOC(=O)C1=C(C)Nc2nc3ccc(Br)cc3n2C1c1ccsc1` (centres unmarked) [15w], the “% at 1 μM hA2A (percentage displacement of specific binding)” value on hA2AAR was determined as 3%. Besides, at hA3AR, the “% at 1 μM hA3 (percentage displacement of specific binding)” value was 3%. For the same compound, on hA2BAR, the “% at 1 μM hA2B (percentage displacement of specific binding)” value is 43%. Also, the “% at 1 μM hA1 (percentage displacement of specific binding)” value on hA1AR is given as 4%.
For the compound `CC1=C(C(=O)OC(C)C)C(c2ccsc2)n2c(nc3ccc(Br)cc32)N1` (centres unmarked) [15x], on hA2AAR, the “% at 1 μM hA2A (percentage displacement of specific binding)” value came to 1%. Moreover, at hA3AR, the “% at 1 μM hA3 (percentage displacement of specific binding)” value was 1%. The “% at 1 μM hA2B (percentage displacement of specific binding)” value on hA2BAR worked out at 10%. Further, on hA1AR, the “% at 1 μM hA1 (percentage displacement of specific binding)” value worked out at 1%.
As to `CCOC(=O)C1=C(C)Nc2nc3cc(F)ccc3n2C1c1ccco1` (centres unmarked) [16a], the “% at 1 μM hA2A (percentage displacement of specific binding)” value at hA2AAR is 29%. Besides, the “% at 1 μM hA3 (percentage displacement of specific binding)” value on hA3AR is listed as 2%. Also, on hA2BAR (setting [1]), the Ki is 6.6 ± 1 nM. For the same compound, on hA2BAR, the “Exp. dG” value was -11.15 and the Ki was below 10 nM. Further, the “% at 1 μM hA1 (percentage displacement of specific binding)” value on hA1AR came to 10%.
On to `CCOC(=O)C1=C(C)Nc2nc3cc(F)ccc3n2C1c1ccoc1` (centres unmarked) [16c], for which the “% at 1 μM hA2A (percentage displacement of specific binding)” value at hA2AAR was 21%. Besides, the “% at 1 μM hA3 (percentage displacement of specific binding)” value at hA3AR came to 2%. The Ki at hA2BAR (setting [1]) worked out at 13.7 ± 0.9 nM. Further, the “Exp. dG” value on hA2BAR is -10.72. At hA1AR, the “% at 1 μM hA1 (percentage displacement of specific binding)” value is 29%.
For the compound `CC1=C(C(=O)OC(C)C)C(c2ccoc2)n2c(nc3cc(F)ccc32)N1` (centres unmarked) [16d], the “% at 1 μM hA2A (percentage displacement of specific binding)” value at hA2AAR came out at 31%. Further, on hA3AR, the “% at 1 μM hA3 (percentage displacement of specific binding)” value was found to be 4%. Also, the Ki on hA2BAR (setting [1]) worked out at 8.6 ± 0.5 nM. On hA2BAR, the “Exp. dG” value is listed as -11 and the inhibitory constant (Ki) is below 10 nM. Besides, at hA1AR, the “% at 1 μM hA1 (percentage displacement of specific binding)” value is 14%.
As for `CCOC(=O)C1=C(C)Nc2nc3cc(F)ccc3n2C1c1cccs1` (centres unmarked) [16e], the “% at 1 μM hA2A (percentage displacement of specific binding)” value at hA2AAR came to 3%. In addition, the “% at 1 μM hA3 (percentage displacement of specific binding)” value on hA3AR is 3%. In addition, the Ki on hA2BAR (setting [1]) was determined as 724 ± 8 nM. Moreover, on hA1AR, the “% at 1 μM hA1 (percentage displacement of specific binding)” value came to 1%.
For `CC1=C(C(=O)OC(C)C)C(c2cccs2)n2c(nc3cc(F)ccc32)N1` (centres unmarked) [16f], at hA2AAR, the “% at 1 μM hA2A (percentage displacement of specific binding)” value came out at 1%. The “% at 1 μM hA3 (percentage displacement of specific binding)” value at hA3AR is given as 7%. Also, the Ki on hA2BAR (setting [1]) is 668 ± 6 nM. The “Exp. dG” value on hA2BAR is -8.419. The “% at 1 μM hA1 (percentage displacement of specific binding)” value at hA1AR was determined as 2%.
On the same counts, the results for `CCOC(=O)C1=C(C)Nc2nc3cc(F)ccc3n2C1c1ccsc1` (centres unmarked) [16g] are 1%, 3%, 187 ± 2 nM, -9.172 and 1%.
